Experimental data from ChEMBL document CHEMBL4177716, “Design, synthesis and pharmacological evaluation of some novel indanone derivatives as acetylcholinesterase inhibitors for the management of cognitive dysfunction” (Bioorg Med Chem, 2018).
Activity calls are given as the source filed them. No cut-off for these calls is given here.

Legend:
[1] = target: T1, Acetylcholinesterase (Mus musculus) (UniProt P21836); settings: Brain, at 5 µM
T1 sequence (whole entry): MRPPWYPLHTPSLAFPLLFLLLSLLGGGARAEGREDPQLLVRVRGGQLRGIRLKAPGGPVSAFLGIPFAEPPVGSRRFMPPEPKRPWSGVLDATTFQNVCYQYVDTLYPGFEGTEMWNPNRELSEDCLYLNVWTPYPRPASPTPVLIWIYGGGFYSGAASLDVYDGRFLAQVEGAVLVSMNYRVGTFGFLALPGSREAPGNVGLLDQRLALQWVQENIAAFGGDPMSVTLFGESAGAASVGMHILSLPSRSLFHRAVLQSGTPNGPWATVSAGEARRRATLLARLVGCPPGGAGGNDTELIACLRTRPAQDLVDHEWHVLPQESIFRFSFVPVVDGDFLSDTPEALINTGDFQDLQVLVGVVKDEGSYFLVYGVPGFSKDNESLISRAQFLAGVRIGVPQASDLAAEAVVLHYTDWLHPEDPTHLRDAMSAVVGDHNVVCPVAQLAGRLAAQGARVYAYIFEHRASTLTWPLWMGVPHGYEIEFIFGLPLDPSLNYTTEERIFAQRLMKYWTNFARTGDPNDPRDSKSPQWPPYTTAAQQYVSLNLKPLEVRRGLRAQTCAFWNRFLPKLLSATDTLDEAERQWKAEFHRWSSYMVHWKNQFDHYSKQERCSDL

[2] = system: Mus musculus; assay: Cognition enhancing effect in albino mouse assessed as reversal of scopolamine-induced memory deficit by measuring basal latency time at 0.5 mg/kg, ip treated 5 mins post scopolamine challenge by step down passive avoidance test (reference value: 63.93 +/- 2.6 sec); type: functional
[3] = target: T1, Acetylcholinesterase (Mus musculus); settings: Brain, at 1 µM
[4] = target: T1, Acetylcholinesterase (Mus musculus); settings: Brain, at 25 µM
[5] = system: Mus musculus; assay: Cognition enhancing effect in albino mouse assessed as reversal of scopolamine-induced memory deficit by measuring reduction in number of mistake at 0.5 mg/kg, ip treated 5 mins post scopolamine challenge by step down passive avoidance test; type: functional, organism-based
[6] = system: Mus musculus; assay: Cognition enhancing effect in albino mouse assessed as reversal of scopolamine-induced memory deficit by measuring latency time at 0.5 mg/kg, ip treated 5 mins post scopolamine challenge by step down passive avoidance test (reference value: 68.16 +/- 0.4 sec); type: functional
[7] = target: T1, Acetylcholinesterase (Mus musculus); settings: Brain, at 50 µM
[8] = target: T1, Acetylcholinesterase (Mus musculus); settings: Brain, at 10 µM
[9] = target: T2, Acetylcholinesterase (Mus musculus, UniProt P21836); design: species or system LACA
T2 sequence (P21836 whole entry): T1 sequence (whole entry)

[10] = target: T1, Acetylcholinesterase (Mus musculus); assay: Inhibition of AchE in albino LACA mouse brain at 10^-3 M using acetylthiocholine iodide as substrate incubated for 10 mins measured for 2 mins by Ellman's method relative to control

SMILES: O=C(Oc1cccc(/C=C2\Cc3ccccc3C2=O)c1)c1cc(C(F)(F)F)cc(C(F)(F)F)c1
- inhibition [1]: 46.8%
- Time [2]: 12.63 s
- inhibition [3]: 38.7%
- inhibition [4]: 59.7%
- Activity [5]: Active
- Time [6]: 6.98 s
- inhibition [7]: 67.7%
- inhibition [8]: 53.2%
- IC50 [9]: 12 µM

SMILES: COc1cc2c(cc1OC)C(=O)C(CC1CCN(Cc3ccccc3)CC1)C2 (stereo not given) [DONEPEZIL]
- Time [2]: 17.67 s
- Activity [5]: Active
- Time [6]: 11.52 s

SMILES: COc1cc2c(cc1OC)C(=O)C(CC1CCN(CC(=O)Cc3nc4cc(OC)c(OC)cc4s3)CC1)C2 (stereo not given)
- inhibition [10]: 3.2%

SMILES: COc1cc2c(cc1OC)C(=O)C(CC1CCN(CC(=O)Cc3nc4ccc(F)cc4s3)CC1)C2 (stereo not given)
- inhibition [10]: 1.24%

SMILES: O=C(Oc1cccc(/C=C2\Cc3ccccc3C2=O)c1)c1ccc([N+](=O)[O-])cc1
- inhibition [1]: 68.3%
- Time [2]: 14.23 s
- inhibition [3]: 72.1%
- inhibition [4]: 60.8%
- Activity [5]: Active
- Time [6]: 7.98 s
- inhibition [7]: 51%
- inhibition [8]: 65.3%
- IC50 [9]: 48.8 µM

SMILES: O=C(Oc1cccc(/C=C2\Cc3ccccc3C2=O)c1)c1cc(Cl)cc(Cl)c1
- inhibition [1]: 41.9%
- Time [2]: 19.86 s
- inhibition [3]: 37%
- inhibition [4]: 43.5%
- Activity [5]: Active
- Time [6]: 12.65 s
- inhibition [7]: 51.6%
- inhibition [8]: 33.9%
- IC50 [9]: 43.3 µM

SMILES: O=C(Oc1cccc(/C=C2\Cc3ccccc3C2=O)c1)c1ccccc1
- inhibition [1]: 27.4%
- Time [2]: 16.01 s
- inhibition [3]: 30.6%
- inhibition [4]: 48.4%
- Activity [5]: Active
- Time [6]: 10.01 s
- inhibition [7]: 67.7%
- inhibition [8]: 37.1%
- IC50 [9]: 34.3 µM

SMILES: COc1cc(C(=O)Oc2cccc(/C=C3\Cc4ccccc4C3=O)c2)cc(OC)c1OC
- inhibition [1]: 32.2%
- Time [2]: 13.81 s
- inhibition [3]: 69.1%
- inhibition [4]: 78.9%
- Activity [5]: Active
- Time [6]: 6.08 s
- inhibition [7]: 32.9%
- inhibition [8]: 72.1%
- IC50 [9]: 14.1 µM

SMILES: COc1cc2c(cc1OC)C(=O)C(CC1CCN(CC(=O)Nc3ccc(F)cc3)CC1)C2 (stereo not given)
- inhibition [10]: 6.19%

SMILES: O=C(Oc1cccc(/C=C2\Cc3ccccc3C2=O)c1)c1ccccc1F
- inhibition [1]: 48.8%
- Time [2]: 13.72 s
- inhibition [3]: 80.4%
- inhibition [4]: 35.2%
- Activity [5]: Active
- Time [6]: 5.9 s
- inhibition [7]: 32.9%
- inhibition [8]: 40.5%
- IC50 [9]: 14.1 µM

SMILES: COc1cc2c(cc1OC)C(=O)C(CC1CCN(CC(=O)Cc3nc4ccc(C)cc4s3)CC1)C2 (stereo not given)
- inhibition [10]: 5.82%

SMILES: O=C(Oc1cccc(/C=C2\Cc3ccccc3C2=O)c1)c1ccc(F)cc1
- inhibition [1]: 35.5%
- Time [2]: 22.06 s
- inhibition [3]: 33.9%
- inhibition [4]: 51.6%
- Activity [5]: Active
- Time [6]: 9.9 s
- inhibition [7]: 54.8%
- inhibition [8]: 38.7%
- IC50 [9]: 40.6 µM

SMILES: COc1ccc(NC(=O)CN2CCC(CC3Cc4cc(OC)c(OC)cc4C3=O)CC2)cc1 (stereo not given)
- inhibition [10]: 12.8%

SMILES: COc1ccc(NC(=O)CN2CCC(CC3Cc4cc(OC)c(OC)cc4C3=O)CC2)cc1OC (stereo not given)
- inhibition [10]: 7.33%

SMILES: COc1cc2c(cc1OC)C(=O)C(CC1CCN(CC(=O)Cc3nc4ccccc4s3)CC1)C2 (stereo not given)
- inhibition [10]: 4.62%

SMILES: COc1cc2c(cc1OC)C(=O)C(CC1CCN(CC(=O)Nc3ccc(Cl)cc3)CC1)C2 (stereo not given)
- inhibition [10]: 2.74%

SMILES: O=C(Oc1cccc(/C=C2\Cc3ccccc3C2=O)c1)c1cccc(CCl)c1
- inhibition [1]: 70.6%
- Time [2]: 20.86 s
- inhibition [3]: 75.9%
- inhibition [4]: 72.9%
- Activity [5]: Active
- Time [6]: 11.65 s
- inhibition [7]: 59.3%
- inhibition [8]: 56.3%
- IC50 [9]: 27.1 µM

SMILES: COc1ccc(C(=O)Oc2cccc(/C=C3\Cc4ccccc4C3=O)c2)cc1
- inhibition [1]: 32.2%
- Time [2]: 14.82 s
- inhibition [3]: 30.6%
- inhibition [4]: 41.9%
- Activity [5]: Active
- Time [6]: 7.11 s
- inhibition [7]: 48.4%
- inhibition [8]: 33.9%
- IC50 [9]: 38.9 µM

SMILES: O=C(Oc1cccc(/C=C2\Cc3ccccc3C2=O)c1)c1cccc(OC(F)(F)F)c1
- inhibition [1]: 72.1%
- Time [2]: 27.67 s
- inhibition [3]: 73.6%
- inhibition [4]: 91.7%
- Activity [5]: Active
- Time [6]: 12.01 s
- inhibition [7]: 78.2%
- inhibition [8]: 64.6%
- IC50 [9]: 12.3 µM

SMILES: COc1cc2c(cc1OC)C(=O)C(CC1CCN(CC(=O)Nc3ccc(C)cc3)CC1)C2 (stereo not given)
- inhibition [10]: 13.9%

SMILES: COc1cc2c(cc1OC)C(=O)C(CC1CCN(CC(=O)Cc3nc4ccc(Cl)cc4s3)CC1)C2 (stereo not given)
- inhibition [10]: 2.13%

SMILES: COc1ccc2nc(CC(=O)CN3CCC(CC4Cc5cc(OC)c(OC)cc5C4=O)CC3)sc2c1 (stereo not given)
- inhibition [10]: 3.72%

SMILES: COc1cc2c(cc1OC)C(=O)C(CC1CCN(CC(=O)Cc3nc4ccc([N+](=O)[O-])cc4s3)CC1)C2 (stereo not given)
- inhibition [10]: 5.9%

SMILES: COc1cc2c(cc1OC)C(=O)C(CC1CCN(CC(=O)Nc3ccc([N+](=O)[O-])cc3)CC1)C2 (stereo not given)
- inhibition [10]: 8.67%

SMILES: O=C(Oc1cccc(/C=C2\Cc3ccccc3C2=O)c1)c1ccc(CCl)cc1
- inhibition [1]: 66.1%
- Time [2]: 14.82 s
- inhibition [3]: 67.6%
- inhibition [4]: 56.3%
- Activity [5]: Active
- Time [6]: 8.11 s
- inhibition [7]: 53.3%
- inhibition [8]: 65.3%
- IC50 [9]: 79.7 µM
